Assay: Solubility in second solution of Japanese Pharmacopoeia (0.2 M phosphate buffer, pH approx. 6.8)
Assay type: physicochemical
Protocol: The term “solubility” used herein means concentration of drug in a supernatant which is obtained by centrifugal separation of unsolved agent, after shaking a mixture prepared by adding the agent to the second solution defined in Japanese Pharmacopoeia [0.2 M phosphate-buffer (pH approx. 6.8), for more than 30 minutes at room temperature (about 15 to about 25° C.) in a rate of more than 100 times per minutes using, for example, a Recipro shaker (model SR-I, Taiyo Scientific Industrial Co., Ltd.).

CONC(=O)Nc1ccc(-c2sc3c(c2CN(C)Cc2ccccc2)c(=O)n(-c2ccccc2)c(=O)n3Cc2c(F)cccc2F)cc1 [Reference example 7, 5-(N-Benzyl-N-methylaminomethyl)-1-(2,6-difluorobenzyl)-6-[4-(3-methoxyureido)phenyl]-3-phenylthieno[2,3-d]pyrimidine-2,4 (1H,3H)-dione]
water solubility (in words): water-insoluble or slightly water-soluble

From patent US20040023987A1, “Sustained release compositions” (priority 2000, published 2004)
